Test results published in US11945822B2, “Pyrazolo-triazine and/or pyrazolo-pxrimidine derivatives as selective inhibitor of cyclin dependent kinase” (QURIENT CO., LTD., priority 2018, dated 2024).

Tests used:
CDK5/p25 = molecular target: T1, CDK5/p25 (Homo sapiens, UniProt Q00535); experiment: Enzymatic assay for CDK5 (FRET based LANCE Ultra kinase assay); assay type: biochemical; conditions: read-out: CDK5 enzymatic activity (IC50 range)
T1 construct: purchased Invitrogen PR8543B
Experimental: (§1) Enzymatic Binding Assay Protocol for CDK1, CDK2, CDK5 and CDK7
(§2) Inhibition activity of the respective compound on CDK kinase under Km value of ATP was tested in FRET based The LANCE® Ultra kinase assay (Perkin Elmer), which uses a ULight™-labeled peptide substrate and an appropriate Europium-labeled anti-phospho-antibody. Test compounds were made with DMSO solutions, and then 4-fold serial dilutions for 8 doses were prepared using automated liquid handler (POD810, LABCYTE) and 80 nL/well of diluted compound solutions were added into the 384-well plates (Greiner, Cat #784075). And then 68 nM of ULight-MBP peptide (Perkin Elmer, Cat #TRF0109-M) and 5 ul/well of ATP (Sigma, Cat #A7699) were added to the plate. After 1 min centrifugation at 1000 rpm, Purified CDKs/Cyclin complex were added following concentrations respectively. 24 uM for CDK1/Cyclin B (Invitrogen, Cat #PR4768C), 22 uM for CDK2/Cyclin A (Invitrogen, Cat #PV6290), 10 uM for CDK5/p25 (Invitrogen, Cat #PR8543B) and […] for CDK7/Cyclin H/MNAT1 (Invitrogen, Cat #PR6749B) were added to the each corresponding plate for CDK1, CDK2, CDK5 and CDK7. Incubate at 23° C. for 60 min and then Eu-labeled anti-phospho-Myelin Basic Protein (PE, Cat #TRF0201-M) and EDTA (Invitrogen, Cat #15575038) mixture in Lance Detection Buffer (Perkin Elmer, Cat #CR97100) was added in each well. After additional incubation at 23° C. for 60 min, test articles were measured the fluorescence using Envision leader (Perkin Elmer, USA) [Laser as excitation light; […] as the first and the second emission filter]. Data was analyzed using XL Fit software.

HCT116 = experiment: Cellular HCT116 viability assay (CellTiter-Glo, 72 hours); assay type: cell-based; conditions: Homo sapiens, HCT-116
Experimental: (§3) All cell lines were routinely tested for mycoplasma.
(§4) The effect of the CDK7 inhibitor to inhibit the growth of target cancer cells was evaluated through the 72 hours time period of viability assay. Briefly, the candidate cell line ware plated in 96 well plate at the following density of cells respectively. […] DMSO solvent without compound served as a control and final DMSO concentration less than 0.1%. After 72 hours of incubation at 37° C., 5% CO2 incubator, cells were analyzed for the viability using the CellTiter-Glo Luminescent Cell Viability Assay (Promega, Cat #G7570). All viability assays were performed in duplicate and Luminescence was read using an Envision (Perkin Elmer, USA). Data was analyzed using XLfit software.

CDK7/Cyclin H/MNAT1 = molecular target: T2, CDK7/Cyclin H/MNAT1 (Homo sapiens, UniProt P50613); experiment: Enzymatic assay for CDK7 (FRET based LANCE Ultra kinase assay); assay type: biochemical; conditions: for IC50: read-out: CDK7 enzymatic activity (IC50 range)
T2 construct: purchased Invitrogen PR6749B
T2 sequence (P50613 whole entry): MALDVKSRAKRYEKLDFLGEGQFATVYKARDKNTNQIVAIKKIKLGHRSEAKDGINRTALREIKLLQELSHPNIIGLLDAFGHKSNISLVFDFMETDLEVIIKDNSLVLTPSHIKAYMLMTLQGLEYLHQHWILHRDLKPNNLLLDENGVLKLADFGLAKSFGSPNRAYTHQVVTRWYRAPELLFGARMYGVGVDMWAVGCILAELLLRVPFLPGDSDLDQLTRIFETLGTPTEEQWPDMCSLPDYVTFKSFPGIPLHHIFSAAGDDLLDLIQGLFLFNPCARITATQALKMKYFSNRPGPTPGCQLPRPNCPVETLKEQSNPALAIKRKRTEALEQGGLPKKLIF
T2 sequence (P51946 whole entry partner): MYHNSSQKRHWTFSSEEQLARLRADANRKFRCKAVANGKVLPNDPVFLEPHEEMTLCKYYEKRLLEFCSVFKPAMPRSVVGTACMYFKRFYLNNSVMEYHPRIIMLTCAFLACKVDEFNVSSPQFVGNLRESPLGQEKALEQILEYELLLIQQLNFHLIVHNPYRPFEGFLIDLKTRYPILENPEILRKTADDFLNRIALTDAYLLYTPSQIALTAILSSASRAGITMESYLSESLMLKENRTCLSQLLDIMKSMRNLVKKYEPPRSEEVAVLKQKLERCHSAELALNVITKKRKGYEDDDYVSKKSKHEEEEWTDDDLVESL
T2 sequence (P51948 whole entry partner): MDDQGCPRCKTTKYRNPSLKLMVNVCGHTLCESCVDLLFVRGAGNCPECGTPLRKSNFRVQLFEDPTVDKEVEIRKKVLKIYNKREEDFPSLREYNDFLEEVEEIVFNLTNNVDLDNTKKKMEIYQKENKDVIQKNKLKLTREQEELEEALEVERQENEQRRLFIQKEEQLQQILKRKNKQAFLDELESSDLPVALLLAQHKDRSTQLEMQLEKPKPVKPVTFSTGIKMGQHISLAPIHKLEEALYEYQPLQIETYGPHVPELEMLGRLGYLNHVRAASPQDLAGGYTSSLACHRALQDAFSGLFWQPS
Experimental: as §1
Inhibition activity of the respective compound on CDK kinase under Km value of ATP was tested in FRET based The LANCE® Ultra kinase assay (Perkin Elmer), which uses a ULight™-labeled peptide substrate and an appropriate Europium-labeled anti-phospho-antibody. […] After 1 min centrifugation at 1000 rpm, Purified CDKs/Cyclin complex were added following concentrations respectively. […] Data was analyzed using XL Fit software.

H460 = experiment: Cellular H460 viability assay (CellTiter-Glo, 72 hours); assay type: cell-based; conditions: Homo sapiens, NCI-H460
Experimental: as §3, §4

MV4-11 = experiment: Cellular MV4-11 viability assay (CellTiter-Glo, 72 hours); assay type: cell-based; conditions: Homo sapiens
Experimental: as §3, §4

CDK1/Cyclin B = molecular target: T3, CDK1/Cyclin B (Homo sapiens, UniProt P06493); experiment: Enzymatic assay for CDK1 (FRET based LANCE Ultra kinase assay); assay type: biochemical; conditions: read-out: CDK1 enzymatic activity (IC50 range)
T3 construct: purchased Invitrogen PR4768C
T3 sequence (P06493 whole entry): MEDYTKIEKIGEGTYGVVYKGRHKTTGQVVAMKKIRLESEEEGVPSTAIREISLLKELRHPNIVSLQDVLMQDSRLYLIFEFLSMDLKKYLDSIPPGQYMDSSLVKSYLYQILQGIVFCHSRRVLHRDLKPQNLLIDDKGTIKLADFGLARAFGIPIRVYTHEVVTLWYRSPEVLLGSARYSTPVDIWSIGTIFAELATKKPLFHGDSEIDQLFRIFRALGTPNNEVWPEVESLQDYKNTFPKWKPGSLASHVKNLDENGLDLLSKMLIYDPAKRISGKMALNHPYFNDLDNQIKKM
T3 sequence (P14635 whole entry partner): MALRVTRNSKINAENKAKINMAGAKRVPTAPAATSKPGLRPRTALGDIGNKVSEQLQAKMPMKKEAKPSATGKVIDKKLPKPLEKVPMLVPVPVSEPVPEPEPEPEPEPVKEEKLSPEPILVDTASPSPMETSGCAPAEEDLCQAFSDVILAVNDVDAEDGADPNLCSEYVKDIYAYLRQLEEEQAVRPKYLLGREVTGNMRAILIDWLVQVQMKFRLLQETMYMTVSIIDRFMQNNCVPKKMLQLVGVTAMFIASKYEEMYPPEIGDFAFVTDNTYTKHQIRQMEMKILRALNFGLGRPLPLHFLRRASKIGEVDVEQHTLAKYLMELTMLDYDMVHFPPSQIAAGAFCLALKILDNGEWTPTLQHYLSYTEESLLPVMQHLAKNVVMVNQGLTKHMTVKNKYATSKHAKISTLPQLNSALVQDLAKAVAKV
Experimental: as §1, §2

CDK2/Cyclin A = molecular target: T4, CDK2/Cyclin A (Homo sapiens, UniProt P24941); experiment: Enzymatic assay for CDK2 (FRET based LANCE Ultra kinase assay); assay type: biochemical; conditions: read-out: CDK2 enzymatic activity (IC50 range)
T4 construct: purchased Invitrogen PV6290
Experimental: as §1, §2

T1 sequence (Q00535 whole entry): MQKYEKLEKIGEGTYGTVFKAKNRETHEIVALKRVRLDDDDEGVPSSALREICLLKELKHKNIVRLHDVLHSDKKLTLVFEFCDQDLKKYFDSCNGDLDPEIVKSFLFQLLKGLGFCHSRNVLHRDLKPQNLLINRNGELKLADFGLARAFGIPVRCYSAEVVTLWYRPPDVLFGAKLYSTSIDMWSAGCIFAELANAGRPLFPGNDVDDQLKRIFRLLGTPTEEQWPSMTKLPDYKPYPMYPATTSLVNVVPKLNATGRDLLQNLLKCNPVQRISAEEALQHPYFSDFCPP
T1 sequence (Q15078 99-307 partner limits assumed): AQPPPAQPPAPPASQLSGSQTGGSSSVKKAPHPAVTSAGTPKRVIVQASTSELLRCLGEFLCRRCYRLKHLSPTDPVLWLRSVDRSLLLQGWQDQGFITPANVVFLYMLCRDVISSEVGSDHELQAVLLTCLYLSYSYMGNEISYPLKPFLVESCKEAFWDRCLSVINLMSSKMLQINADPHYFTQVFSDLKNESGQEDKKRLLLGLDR

Row | SMILES | IC50 (CDK5/p25) [nM] | IC50 (HCT116) [nM] | CDK1/CDK7: Selectivity of CDK7 inhibition over CDK1 inhibition (CDK7/Cyclin H/MNAT1) | CDK2/CDK7: Selectivity of CDK7 inhibition over CDK2 inhibition (CDK7/Cyclin H/MNAT1) | CDK5/CDK7: Selectivity of CDK7 inhibition over CDK5 inhibition (CDK7/Cyclin H/MNAT1) | IC50 (CDK7/Cyclin H/MNAT1) [nM] | IC50 (H460) [nM] | IC50 (MV4-11) [nM] | IC50 (CDK1/Cyclin B) [nM] | IC50 (CDK2/Cyclin A) [nM]
1 | CC(C)c1cnn2c(NCc3ccccc3-c3ccc4ccccc4n3)nc(N3CCC(CN)CC3)nc12 [Compound 216] | > 1000 | < 1000 | A (A=greater than 200 fold) | A (A=greater than 200 fold) | A (A=greater than 200 fold) | < 100 | < 1000 | < 1000 | > 1000 | > 1000
2 | CC1CCN(c2cnn(-c3cccc(Cl)c3CNc3nc(N4CCC(N)CC4)nc4c(C(C)C)cnn34)c2)CC1 [Compound 204] | > 1000 | < 1000 | A (A=greater than 200 fold) | A (A=greater than 200 fold) | A (A=greater than 200 fold) | < 100 | < 1000 | < 1000 | > 1000 | > 1000
3 | CC(C)c1cnn2c(NC(C)c3ccccc3-n3ccc(CO)n3)nc(N3CCC(N)CC3)nc12 (racemic) [Compound 220] | > 1000 | < 1000 | A (A=greater than 200 fold) | A (A=greater than 200 fold) | A (A=greater than 200 fold) | < 100 | < 1000 | < 1000 | > 1000 | > 1000
4 | CNC(=O)c1cc2cn(-c3ccccc3CNc3nc(N4CCC(N)CC4)nc4c(C(C)C)cnn34)nc2cc1F [Compound 157] | 100 to 1000 | < 1000 | A (A=greater than 200 fold) | A (A=greater than 200 fold) | B (B=less than 200 fold, but greater than 20 fold) | < 100 | < 1000 | < 1000 | > 1000 | 100 to 1000
5 | CC(C)c1cnn2c(NCc3ccccc3-n3cc(C(=O)Nc4ccccc4)cn3)nc(N3CCC(N)CC3)nc12 [Compound 152] | < 100 | < 1000 | A (A=greater than 200 fold) | B (B=less than 200 fold, but greater than 20 fold) | B (B=less than 200 fold, but greater than 20 fold) | < 100 | < 1000 | < 1000 | > 1000 | 100 to 1000
6 | CC(C)c1cnn2c(NCc3ccccc3-n3cc4cc(C(=O)NC5CC5)ccc4n3)nc(N3CCC(N)CC3)nc12 [Compound 161] | 100 to 1000 | < 1000 | A (A=greater than 200 fold) | B (B=less than 200 fold, but greater than 20 fold) | B (B=less than 200 fold, but greater than 20 fold) | < 100 | < 1000 | < 1000 | 100 to 1000 | 100 to 1000
7 | CC(C)c1cnn2c(NCc3ccccc3-n3cccn3)nc(-c3cccc(C4CCNCC4)c3)nc12 [Compound 165] | 100 to 1000 | – | A (A=greater than 200 fold) | B (B=less than 200 fold, but greater than 20 fold) | B (B=less than 200 fold, but greater than 20 fold) | < 100 | < 1000 | < 1000 | > 1000 | > 1000
8 | Cc1ccc(-c2cc3ccccc3[nH]2)c(CNc2nc(N3CCC(N)CC3)nc3c(C(C)C)cnn23)c1 [Compound 190] | > 1000 | – | A (A=greater than 200 fold) | A (A=greater than 200 fold) | B (B=less than 200 fold, but greater than 20 fold) | < 100 | 1000 to 10000 | 1000 to 10000 | > 1000 | > 1000
9 | CC(C)c1cnn2c(NCc3ccccc3-n3cccn3)nc(Nc3cccc(OC4CCNC4)c3)nc12 (racemic) [Compound 164] | > 1000 | – | B (B=less than 200 fold, but greater than 20 fold) | B (B=less than 200 fold, but greater than 20 fold) | B (B=less than 200 fold, but greater than 20 fold) | < 100 | – | 1000 to 10000 | > 1000 | > 1000
10 | CC(C)c1cnn2c(NCc3cccc4ccncc34)nc(N3CCC(N)CC3)nc12 [Compound 31] | < 100 | < 1000 | B (B=less than 200 fold, but greater than 20 fold) | B (B=less than 200 fold, but greater than 20 fold) | C (C=less than 20 fold) | < 100 | < 1000 | – | 100 to 1000 | < 100
11 | Cc1ccc(CNc2nc(N3CCC(N)CC3)nc3c(C(C)C)cnn23)c(-c2cc3ccccc3[nH]2)c1 [Compound 191] | 100 to 1000 | – | B (B=less than 200 fold, but greater than 20 fold) | B (B=less than 200 fold, but greater than 20 fold) | B (B=less than 200 fold, but greater than 20 fold) | < 100 | < 1000 | < 1000 | 100 to 1000 | 100 to 1000
12 | CC(C)c1cnn2c(NCc3ccccc3-n3cccn3)nc(-c3cccc(N4CCNCC4)c3)nc12 [Compound 167] | 100 to 1000 | – | A (A=greater than 200 fold) | B (B=less than 200 fold, but greater than 20 fold) | B (B=less than 200 fold, but greater than 20 fold) | < 100 | < 1000 | < 1000 | > 1000 | > 1000
13 | CC(C)c1cnn2c(NCc3ccccc3-n3cc4cc(O)ccc4n3)nc(N3CCC(N)CC3)nc12 [Compound 159] | 100 to 1000 | < 1000 | A (A=greater than 200 fold) | B (B=less than 200 fold, but greater than 20 fold) | B (B=less than 200 fold, but greater than 20 fold) | < 100 | – | < 1000 | > 1000 | 100 to 1000
14 | CC(C)c1cnn2c(NCc3ccccc3-n3cc4cc(NS(C)(=O)=O)ccc4n3)nc(N3CCC(N)CC3)nc12 [Compound 158] | < 100 | < 1000 | B (B=less than 200 fold, but greater than 20 fold) | B (B=less than 200 fold, but greater than 20 fold) | B (B=less than 200 fold, but greater than 20 fold) | < 100 | – | < 1000 | 100 to 1000 | 100 to 1000
